What follows are molecules tested on influenza A/California/2009 (H1N1) (assay: microbe, parasite or virus in culture). Conditions: H1N1, MDCK.
Format: cell-based

Question: Which EC50 does the source give for `O=C1c2c(O)c(=O)ccn2N(C(c2ccc(F)cc2)c2ccc(F)cc2)[C@@H]2COCCN12` [1.14.2, (12aR)-7-hydroxy-12-[bis(4-fluorophenyl)methyl]-3,4,12,12a-tetrahydro-1H-[1,4]oxazino[3,4-c]pyrido[2,1-f][1,2,4]triazine-6,8-dione] here?
Answer: 2 to 4 nM

Question: `O=C1c2c(O)c(=O)ccn2N([C@H](c2ccccc2)c2ccc(F)c(F)c2)[C@@H]2COCCN12` [1.8.2, (12aR)-7-hydroxy-12-[(R)-(3,4-difluorophenyl)(phenyl)methyl]-3,4,12,12a-tetrahydro-1H-[1,4]oxazino[3,4-c]pyrido[2,1-f][1,2,4]triazine-6,8-dione] was tested. Which EC50 did it give?
Answer: 2 to 4 nM

Question: With `O=C1c2c(O)c(=O)ccn2N([C@@H]2c3ccc(F)c(F)c3CSc3ccsc32)[C@@H]2COCCN12` [1.3.2, (12aR)-7-hydroxy-12-[(10R)-6,7-difluoro-5,10-dihydrothieno[3,2-c][2]benzothiepin-10-yl]-3,4,12,12a-tetrahydro-1H-[1,4]oxazino[3,4-c]pyrido[2,1-f][1,2,4]triazine-6,8-dione] as the molecule, how does the EC50 read?
Answer: < 0.3 nM

Question: With `O=C1c2c(O)c(=O)ccn2N([C@@H](c2ccccc2)c2ccc(F)c(F)c2)[C@@H]2COCCN12` [1.9.2, (12aR)-7-hydroxy-12-[(S)-(3,4-difluorophenyl)(phenyl)methyl]-3,4,12,12a-tetrahydro-1H-[1,4]oxazino[3,4-c]pyrido[2,1-f][1,2,4]triazine-6,8-dione] as the molecule, how does the EC50 read?
Answer: 2 to 4 nM

Question: With `O=C1c2c(O)c(=O)ccn2N(C(c2ccccc2)c2ccccc2)[C@@H]2COCCN12` [1.13.2, (12aR)-7-hydroxy-12-diphenylmethyl-3,4,12,12a-tetrahydro-1H-[1,4]oxazino[3,4-c]pyrido[2,1-f][1,2,4]triazine-6,8-dione] as the molecule, how does the EC50 read?
Answer: 2 to 4 nM

Source: patent US12091423B2, “Substituted 3,4,12,12a-tetrahydro-1H-[1,4]oxazino[3,4-c]pyrido[2,1-f][1,2,4]triazine-6,8-dione, pharmaceutical composition, method for the production and use thereof” (VIRIOM, INC., priority 2019, dated 2024)
